Source: patent US20250205265A1, “ASPERULOSIDE AS AN AGENT FOR IMPROVING VASCULAR AND METABOLIC FUNCTION IN OBESITY: ROLE OF NRF2 ACTIVATION” (The Chinese University of Hong Kong, priority 2023, published 2025)
Entries after “also recorded” stand apart in the source; their conditions may differ. Read-outs that look alike come from different tables or passages of the source.

Experiments:
[1] = test system: Ho-1, Sirt1, Sirt3, Sirt6 and Sod2; test: Real-time PCR of Nrf2 downstream genes in obese mice livers; type: in vivo
Protocol: (§1) After induction of obesity in C57BL/6 male mice fed with the high-fat diet for twelve weeks, they were treated daily with ASP (50 mg/kg) via oral gavage for seven weeks in vivo study. C57BL/6 mice aortae were used for ex vivo studies. Endothelial cells, HepG2 and primary adipocytes were used for in vitro studies. Vascular function was determined by wire myograph. H&E staining was employed for histological examination. Oil Red O staining was used to determine lipid droplets in tissues and cells. DHE and MitoSOX staining were used to detect ROS levels. QPCR, aortic en-face immunofluorescence staining, and Western blotting were used to analyze mRNA and protein expressions. ARE binding activity was determined by Dual luciferase reporter assay. Small interfering (si)RNA of Nrf2 and HO-1, inhibitors of Nrf2 (ML385, Cat. No.: HY-100523) and HO-1 (OB-24, HY-118487) were used to elucidate the mechanistic pathway of ASP's action.

[2] = target: T1, Nrf2 protein (Mus musculus, UniProt Q60795); test: CETSA in endothelial cells; type: binding; settings: ASP 40 μmol/L
T1 construct: endogenous in cells
T1 sequence (Q60795 whole entry): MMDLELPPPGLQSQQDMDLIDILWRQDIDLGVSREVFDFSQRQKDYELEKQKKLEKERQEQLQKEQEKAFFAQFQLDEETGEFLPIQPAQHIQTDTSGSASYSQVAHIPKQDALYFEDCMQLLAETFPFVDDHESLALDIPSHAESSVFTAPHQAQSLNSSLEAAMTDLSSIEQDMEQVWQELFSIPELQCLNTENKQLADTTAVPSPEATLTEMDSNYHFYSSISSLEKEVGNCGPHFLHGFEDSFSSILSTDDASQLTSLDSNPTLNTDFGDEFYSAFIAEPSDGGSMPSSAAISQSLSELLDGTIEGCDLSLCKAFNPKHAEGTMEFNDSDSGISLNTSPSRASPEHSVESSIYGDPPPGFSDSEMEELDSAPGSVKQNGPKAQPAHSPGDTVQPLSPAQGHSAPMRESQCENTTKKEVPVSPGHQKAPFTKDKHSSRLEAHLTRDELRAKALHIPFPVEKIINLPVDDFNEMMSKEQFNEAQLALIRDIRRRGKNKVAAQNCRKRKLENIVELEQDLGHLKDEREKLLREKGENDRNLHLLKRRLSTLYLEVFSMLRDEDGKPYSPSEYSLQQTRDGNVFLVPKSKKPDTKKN
Protocol: The Nrf2 protein expression was normalized to total protein. P values were determined using One-way ANOVA. *p<0.05. Data represent means±SEM of 3 experiments.

[3] = test system: HepG2 cells; test: DHE staining of palmitic acid-treated HepG2 cells; type: cell-based; settings: Nrf2-inhibited HepG2 cells
Protocol: as §1

[4] = test system: lipid droplets in obese mice livers; test: H&E and Oil Red O staining of obese mice livers; type: in vivo; settings: ASP 50 mg/kg oral gavage daily for seven weeks
Protocol: as §1

[5] = test system: Nrf2/antioxidant responsive element (ARE); test: ARE binding activity, luciferase reporter assay in endothelial cells; type: cell-based; settings: for endothelial Nrf2/ARE binding, higher than the binding to impaired endothelial cells: worded as embodiment, cf. FIG. 3D
Protocol: as §1

[6] = test system: VCAM-1; test: Real-time PCR of VCAM-1 in aortas of obese mice; type: in vivo
Protocol: (§2) After induction of obesity in C57BL/6 male mice fed with high fat diet for twelve weeks, they were treated daily with ASP (50 mg/kg) via oral gavage for seven weeks in vivo study. C57BL/6 mice aortae were used for ex vivo study and endothelial cells were used for in vitro study. Vascular function was determined by wire myograph. DHE and MitoSOX staining were used to detect ROS levels. QPCR, aortic en-face immunofluorescence staining, and Western blotting were used to analyze mRNA and protein expressions. Small interfering (si)RNA of Nrf2 and HO-1, inhibitors of Nrf2 (ML385, Cat. No.: HY-100523) and HO-1 (OB-24, HY-118487) were used to elucidate the mechanistic pathway of ASP's action.
as §1, with “QPCR, aortic en-face immunofluorescence staining, and Western blotting were used to analyze mRNA and protein expressions.” left out, “Small interfering (si)RNA of Nrf2 and HO-1, inhibitors of Nrf2 (ML385, Cat. No.: HY-100523) and HO-1 (OB-24, HY-118487) were used to elucidate the mechanistic pathway of ASP's action.” left out

[7] = test system: HepG2 cells; test: Oil Red O staining of PA-treated HepG2 cells; type: cell-based; settings: Nrf2-inhibited HepG2 cells
Protocol: as §1

[8] = test system: Nrf2; test: Real-time PCR of Nrf2 in obese mice aortas; type: in vivo
Protocol: as §2
as §1, with “QPCR, aortic en-face immunofluorescence staining, and Western blotting were used to analyze mRNA and protein expressions.” left out, “Small interfering (si)RNA of Nrf2 and HO-1, inhibitors of Nrf2 (ML385, Cat. No.: HY-100523) and HO-1 (OB-24, HY-118487) were used to elucidate the mechanistic pathway of ASP's action.” left out

[9] = test system: FAS, ACC2, SREBP1C, HSL; test: Real-time PCR of lipid metabolism genes in PA-treated HepG2 cells; type: cell-based
Protocol: as §1

[10] = test system: VCAM-1 and ICAM-1; test: Endothelial activation (VCAM-1 and ICAM-1) in endothelial cells; type: cell-based
Protocol: as §2
as §1, with “QPCR, aortic en-face immunofluorescence staining, and Western blotting were used to analyze mRNA and protein expressions.” left out, “Small interfering (si)RNA of Nrf2 and HO-1, inhibitors of Nrf2 (ML385, Cat. No.: HY-100523) and HO-1 (OB-24, HY-118487) were used to elucidate the mechanistic pathway of ASP's action.” left out

[11] = test system: HO-1; test: Real-time PCR of HO-1 in obese mice aortas; type: in vivo
Protocol: as §2
as §1, with “QPCR, aortic en-face immunofluorescence staining, and Western blotting were used to analyze mRNA and protein expressions.” left out, “Small interfering (si)RNA of Nrf2 and HO-1, inhibitors of Nrf2 (ML385, Cat. No.: HY-100523) and HO-1 (OB-24, HY-118487) were used to elucidate the mechanistic pathway of ASP's action.” left out

[12] = test system: Nrf2/ARE; test: Dual-luciferase assay of ARE binding in PA-treated HepG2 cells; type: cell-based
Protocol: as §1

[13] = test system: primary adipocytes; test: Real-time PCR in primary adipocytes; type: cell-based, mice
Protocol: Primary adipocytes were treated with ASP overnight. […] Data represent means±SEM of 4 mice. P values were determined using One-way ANOVA. *p<0.05.
Primary adipocytes were treated with 40 μmol/L ASP (FIG. 22A) or different doses of ASP (FIG. 22B) for 24 hours. […] Scale bar, 50 μm (FIG. 22B). Data represent means±SEM of 4 experiments. P values were determined using One-way ANOVA. *p<0.05.
as §1

[14] = test system: Nrf2; test: Nrf2 nuclear translocation in endothelial cells; type: cell-based
Protocol: as §2, §1

[15] = test system: Nrf2; test: Nrf2 nuclear translocation and protein level in obese mice livers; type: in vivo
Protocol: as §1

[16] = test system: perirenal adipose tissues; test: Weight and sizes of perirenal adipose tissues in obese mice; type: in vivo
Protocol: as §1

[17] = test system: HepG2 cells; test: ATP production in PA-treated HepG2 cells; type: cell-based
Protocol: as §1

[18] = test system: SDHC; test: Real-time PCR of SDHC in PA-treated HepG2 cells; type: cell-based; settings: PA-treated HepG2 cells when Nrf2 is inhibited
Protocol: as §1

[19] = test system: ROS; test: Ex vivo DHE staining of ROS in IL-1β-treated aortas; parameters: species or system mice
Protocol: as §2, §1

[20] = test system: Npra, Hsl, Fas, Acc2; test: Real-time PCR of lipid metabolism genes in obese mice livers; type: in vivo
Protocol: as §1

[21] = test system: obese mice livers; test: DHE staining of obese mice livers; type: in vivo
Protocol: as §1

[22] = test system: C57BL/6 mice aortae; test: Ex vivo wire myograph, IL-1β-impaired EDRs in mouse aortas; settings: for EDRs: IL-1β
Protocol: as §2, §1

[23] = test system: ROS; test: DHE staining of ROS in obese mice aortic sections; type: in vivo; settings: ASP 50 mg/kg oral gavage daily for seven weeks
Protocol: as §2
as §1, with “QPCR, aortic en-face immunofluorescence staining, and Western blotting were used to analyze mRNA and protein expressions.” left out, “Small interfering (si)RNA of Nrf2 and HO-1, inhibitors of Nrf2 (ML385, Cat. No.: HY-100523) and HO-1 (OB-24, HY-118487) were used to elucidate the mechanistic pathway of ASP's action.” left out

[24] = test system: endothelial cells; test: ROS level in endothelial cells; type: cell-based
Protocol: as §2
as §1, with “QPCR, aortic en-face immunofluorescence staining, and Western blotting were used to analyze mRNA and protein expressions.” left out, “Small interfering (si)RNA of Nrf2 and HO-1, inhibitors of Nrf2 (ML385, Cat. No.: HY-100523) and HO-1 (OB-24, HY-118487) were used to elucidate the mechanistic pathway of ASP's action.” left out

[25] = obese mice aortae, ASP 50 mg/kg oral gavage daily for seven weeks
[26] = obese mice aortas, real-time PCR

Asperuloside
gene expressions of Ho-1, Sirt1, Sirt3, Sirt6 and Sod2 ([1]; obese mice livers): upregulates gene expressions of Ho-1, Sirt1, Sirt3, Sirt6 and Sod2
increase of HO-1 mRNA expression in the liver ([1]; worded as embodiment, cf. FIG. 13C): about 2.5 fold
melting behavior of Nrf2 protein (CETSA) ([2]; 0.3 ng/mL IL-1β-treated endothelial cells): changes the melting behavior of Nrf2 protein
melting behavior of Nrf2 protein (CETSA) ([2]; endothelial cells under basal conditions): changes the melting behavior of Nrf2 protein
palmitic acid-induced oxidative stress (DHE staining) [3]: fails to attenuate palmitic acid-induced oxidative stress
accumulated lipid droplets (H&E, Oil Red O) [4]: attenuates obesity-induced accumulated lipid droplets
endothelial Nrf2/ARE binding, higher than the binding to impaired endothelial cells ([5]; 10 μm ASP): about 50%
endothelial Nrf2/ARE binding, higher than the binding to impaired endothelial cells ([5]; 20 μm ASP): ~60%
endothelial Nrf2/ARE binding, higher than the binding to impaired endothelial cells ([5]; 40 μm ASP): ~70%
ARE binding activity ([5]; luciferase reporter assay): increased ARE binding activity
VCAM-1 mRNA expression ([6]; aortas of obese mice, real-time PCR): decreases elevated expression of VCAM-1 and ICAM-1 mRNA
reduction of VCAM-1 expression [6, 25]: about 2 fold
PA-induced lipid accumulation (Oil Red O) [7]: fails to alleviate PA-induced lipid accumulation
increase of Nrf2 expression [8, 25]: about 1.5 fold
Nrf2 mRNA expression level [8, 26]: increases mRNA expression level of Nrf2
mRNA levels of FAS, ACC2 and SREBP1C ([9]; Nrf2-inhibited HepG2 cells): fails to decrease its expression levels
PA-stimulated overexpression of mRNA levels of FAS, ACC2 and SREBP1C ([9]; PA-treated HepG2 cells): inhibited by ASP treatment
HSL mRNA expression ([9]; palmitic acid, Nrf2-inhibited HepG2 cells): fails to restore palmitic acid-decreased HSL mRNA expression
endothelial activation ([10]; HO-1-silencing (HO-1-siRNA transfected) endothelial cells): fails to decrease ROS level (FIG. 2E) or inhibit endothelial activation; also recorded: failed to prevent endothelial dysfunction in HO-1 inhibited aortae (FIGS. 2A-2D) and HO-1-siRNA transfected endothelial cells
overexpression of VCAM-1 and ICAM-1 ([10]; endothelial cells): inhibits overexpression of VCAM-1 and ICAM-1
increase of HO-1 expression [11, 25]: about 1.5 fold
HO-1 mRNA expression level [11, 26]: increases mRNA expression level of Nrf2 (FIG. 1G) and HO-1
binding activity of ARE ([12]; 250 μmol/L PA-treated HepG2 cells for 16 hours): dose-dependently increases the binding activity of ARE
increase of Nrf2/ARE binding ([12]; palmitic acid-impaired HepG2 cells, worded as embodiment, cf. FIG. 13E): about 2 fold
mRNA expression levels of Nprc and Cd36 ([13]; primary adipocytes treated with ASP overnight): dose-dependently decreases mRNA expression levels of Nprc (FIG. 21A) and Cd36
mRNA expression of Nrf2 ([13]; primary adipocytes, different doses of ASP for 24 hours): dose-dependently increases mRNA expression of Nrf2
increase of Nrf2 mRNA expression ([13]; primary adipocytes, worded as embodiment, cf. FIG. 22B): at least 1.2 fold
Nrf2 nuclear expression (western blotting) ([14]; 40 μmol/L ASP, endothelial cells under basal conditions): increases Nrf2 nuclear expressions
Nrf2 nuclear translocation (western blotting) ([14]; endothelial cells): dose-dependently stimulates Nrf2 nuclear translocation; also recorded: increased nuclear Nrf2
Nrf2 nuclear translocation (immunofluorescence) ([15]; obese mice livers): stimulates Nrf2 nuclear translocation in obese mice livers
Nrf2 protein level (western blot) ([15]; obese mice livers): increased
increase of protein level of Nrf2 in the liver ([15]; worded as embodiment, cf. FIG. 13B): about 3 fold
ratio of perirenal adipose tissues to body weight ([16]; obese mice): decreased
sizes of adipocytes (H&E staining) ([16]; obese mice): remarkably reduces the sizes of adipocytes
decrease of perirenal adipose tissues in weight and sizes, average ([16]; worded as embodiment, cf. FIGS. 14A-14B): about 35%
production of ATP [17]: restores the decreased production of ATP
production of ATP ([17]; inhibition of Nrf2): inhibition of Nrf2 eliminates the rescue effect of ASP
mRNA expression levels of SDHC [18]: fails to upregulate the mRNA expression levels of SDHC
ROS generation ([19]; IL-1β, HO-1-inhibited aortas): fails to rescue the impairment (FIG. 2C) or decrease ROS generation
IL-1β-induced ROS overproduction ([19]; ML385-treated aortas): fails to reverse impairment (FIG. 4E) or suppress IL-1β-induced ROS overproduction
IL-1β-induced ROS overexpression (DHE staining) ([19]; endothelial Nrf2 knocked down): fails to suppress IL-1β-induced ROS overexpression
mRNA expression levels of fatty acid synthesis-related genes, including Fas and Acc2 [20]: downregulated
mRNA expression levels of lipolysis-related genes, Npra and Hsl [20]: increases the mRNA expression levels of lipolysis-related genes, Npra and Hsl
oxidative stress (DHE staining) [21]: suppresses oxidative stress in obese mice livers
EDRs ([22]; ML385-treated aortas): fails to reverse impairment
EDRs ([22]; endothelial-cell specific Nrf2 knockdown murine aortas): fails to reverse the impairment
acetylcholine-induced EDRs ([22]; IL-1β-treated aortas, ex vivo): prevents IL-1-induced impairment in acetylcholine-induced EDRs; also recorded: prevents IL-1β-impaired EDRs; also recorded: rescued IL-1β-impairs EDRs
acetylcholine-induced EDRs ([22]; IL-1β-treated, HO-1-inhibited (OB-24) aortas): fails to rescue the impairment; also recorded: failed to prevent endothelial dysfunction in HO-1 inhibited aortae
ROS generation / oxidative stress (DHE staining) [23]: suppresses elevated ROS generation; also recorded: suppressed oxidative stress
ROS level ([24]; HO-1-silencing cells): fails to decrease ROS level
oxidative stress ([24]; endothelial cells): suppresses oxidative stress
